Details of series [1]: method as in PMID 30236787. Conditions: vs NHE; cited from earlier work.
Series [2] relates to MRC-5 normal embryonal lung fibroblasts. Kind of series: MTT cytotoxicity assay, MRC-5. Conditions: read-out: IC50 MRC-5, 10^4 cells, 72 h exposure, nontumoral fibroblasts. Background: Formazan colour is commonly taken as a measure of viable cells.
Description: (§1) Cells were grown as monolayers in 75 cm^2 culture flasks (Starlab, Hamburg, Germany) at 37 °C in a humidified atmosphere containing 5% CO2.
(§2) The cytotoxic activity of the compounds was determined by the 3-(4,5-dimethylthiazol-2-yl)-2,5-diphenyl-2H-tetrazolium bromide (MTT) assay (obtained from Acros Organics, Geel, Belgium) in at least three independent experiments. […] Furthermore, 1 × 10^4 cells of Colo205, Colo320, and MCF-7 as well as MRC-5 were seeded overnight prior to the assay with 72 h exposure to the compounds tested. […] In the case of the metal complexes, we first mixed the ligand and the aqueous metal salt solution (c = 10 mM) in the appropriate ratio followed by dilution with the medium. The metal salts dissolved in the same way were also tested.
(§3) MTT assays with the cell lines Colo205, Colo320, MCF-7, and MRC-5 were performed after addition of the substances and a subsequent 72 h incubation time. At the end of the incubation period, 20 μL of the MTT solution (from a stock solution of 5 mg/mL) was added to each well. After the staining, the plates were incubated at 37 °C for 4 h, then 100 μL of SDS solution (10% in 0.01 M HCI) was added to each well, and the plates were incubated at 37 °C overnight. The optical density (OD) was determined at 540/630 nm with a Multiscan EX ELISA reader (Thermo Labsystems).
(§4) The IC50 values, i.e., the concentrations resulting in half the number of viable cells relative to untreated controls, were interpolated from concentration–effect curves of at least three independent experiments.
Series [3] has as its system A549 non-small-cell lung cancer cells. Kind of series: MTT cytotoxicity assay, A549. Conditions: read-out: IC50 A549, 3 × 10^3 cells, 96 h exposure.
Description: (§5) CH1/PA-1 (provided by L.R. Kelland, CRC Centre for Cancer Therapeutics, Institute of Cancer Research, Sutton, UK; confirmed by STR profiling as PA-1 ovarian teratocarcinoma cells at Multiplexion, Heidelberg, Germany), SW480 colon carcinoma, and A549 non-small-cell lung cancer cells (both obtained from the American Type Culture Collection, Manassas, VA, USA) were maintained in a minimal essential medium (MEM) supplemented with 1 mM sodium pyruvate, 4 mM L-glutamine, 1% (v/v) nonessential amino acids from 100-fold stock (all purchased from Sigma-Aldrich), and 10% heat-inactivated fetal bovine serum (FBS; BioWest, Nuaillé, France).
as §1
(§6) The cytotoxic activity of the compounds was determined by the 3-(4,5-dimethylthiazol-2-yl)-2,5-diphenyl-2H-tetrazolium bromide (MTT) assay (obtained from Acros Organics, Geel, Belgium) in at least three independent experiments. A total of 1 × 10^3 CH1/PA-1, 2 × 10^3 SW480, and 3 × 10^3 A549 cells were seeded at 100 μL per well into 96-well microculture plates (Starlab, Hamburg, Germany) 24 h before a treatment with the test compounds for a period of 96 h. […] In the case of the metal complexes, we first mixed the ligand and the aqueous metal salt solution (c = 10 mM) in the appropriate ratio followed by dilution with the medium.
(§7) CH1/PA-1, SW480, and A549 cells were treated with 100 μL/well of the test compounds serially diluted in complete MEM. […] After 4 h incubation, the MTT-containing medium was replaced with 150 μL DMSO per well to dissolve the formazan product formed by viable cells.
as §4
In series [4] the test system is SW480 colon carcinoma cells. Kind of series: MTT cytotoxicity assay, SW480. Conditions: read-out: IC50 SW480, 2 × 10^3 cells, 96 h exposure.
Description: as §5, §1, §6, §7, §4
In series [5] the test system is MCF-7 breast cancer cells. Kind of series: MTT cytotoxicity assay, MCF-7. Particulars: read-out: IC50 MCF-7, 10^4 cells, 72 h exposure.
Description: as §1, §2, §3, §4
Series [6] concerns CH1/PA-1 ovarian teratocarcinoma cells. Kind of series: MTT cytotoxicity assay, CH1/PA-1. Conditions: read-out: IC50 CH1/PA-1, 10^3 cells, 96 h exposure.
Description: as §5, §1, §6, §7, §4
Series [7] relates to Colo205 colon adenocarcinoma cells. Kind of series: MTT cytotoxicity assay, Colo205. Conditions: read-out: IC50 Colo205, 10^4 cells, 72 h exposure.
Description: as §1, §2, §3, §4
Series [8] concerns Colo320 (doxorubicin-resistant) colon adenocarcinoma cells. Kind of series: MTT cytotoxicity assay, Colo320. Conditions: read-out: IC50 Colo320, 10^4 cells, 72 h exposure.
Description: as §1, §2, §3, §4

Turning to `c1cnc2c(c1)ccc1cccnc12` [1,10-phenantroline], the “redox potential of the Fe(III)/Fe(II) complexes of the ligand” value (“redox potential” below) in series [1] was “+1130 mV”.

`c1ccc(-c2ccccn2)nc1` [2,2-bipiyridine]: in series [1], the “redox potential” value is recorded as “+1100 mV”.

Take `[Cl][Cu][Cl]` [CuCl2]: the IC50 in series [2] was greater than 10 µM; in series [3], 142 ± 16 µM; in series [4] it was 154 ± 21 µM; in series [5] it was greater than 10 µM; in series [6], 28 ± 5 µM; in series [7] it was greater than 10 µM. Moreover, in series [8], the IC50 was greater than 10 µM.

As to `[Cl][Fe]([Cl])[Cl]` [FeCl3], the IC50 is greater than 10 µM in series [2]; greater than 200 µM in series [3]; greater than 200 µM in series [4]; greater than 10 µM in series [5]; greater than 200 µM in series [6]; greater than 10 µM in series [7]. Further, the IC50 in series [8] was greater than 10 µM.

In the case of `[Cl-].[Cl-].[Zn+2]` [ZnCl2], the IC50 in series [2] is greater than 10 µM; in series [3], 123 ± 9 µM; in series [4], 125 ± 16 µM; in series [5], greater than 10 µM; in series [6], 66 ± 3 µM; in series [7], greater than 10 µM. Further, the IC50 in series [8] was greater than 10 µM.

As for `O=C(O)c1ccc(-n2nc(-c3ccccc3O)nc2-c2ccccc2O)cc1` [deferasirox], the “redox potential” value in series [1] is recorded as −400 mV.

`Cc1c(O)c(=O)ccn1C` [deferiprone]: in series [1], the “redox potential” value is −620 mV.

With `CC(=O)N(O)CCCCCNC(=O)CCC(=O)N(O)CCCCCNC(=O)CCC(=O)N(O)CCCCCN` [deferoxamine B], in series [1], the “redox potential” value was −450 mV.

Values taken from publication PMC10848209, “A Comparative Study on the Complexation of the Anticancer Iron Chelator VLX600 with Essential Metal Ions” (Inorganic Chemistry, 2024).
